Test results published in patent US20260365682A1, “MODULATORS OF TNF-ALPHA ACTIVITY” (Forward Therapeutics, Inc., priority 2022, published 2026).

Molecular target: T1, TNF-α (Homo sapiens, UniProt P01375)
T1 construct: purchased R&D 210-TA-020/CF
Assay: TNF-α Induced HEK Blue Cellular Assay (secreted alkaline phosphatase expression, QUANTI-Blue)
Type: cell-based
Details: HEK Blue TNFα reporter cells; TNF-α 100 μg/ml; 24 hrs at 37° C.; inhibition of secreted alkaline phosphatase; read-out: IC50 value
Method in brief: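 HEK Blue TNFα reporter cells (10,000/well) in DMEM with 10% FBS received compound ([…] to 0.5 nM final) and TNF-α at […] final for 24 h at 37° C. Secreted alkaline phosphatase read with QUANTI-Blue at 620 nm. IC50 came from a 4-parameter logistic fit after normalising to unstimulated and stimulated DMSO controls.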

T1 sequence (P01375 77-233 limits assumed): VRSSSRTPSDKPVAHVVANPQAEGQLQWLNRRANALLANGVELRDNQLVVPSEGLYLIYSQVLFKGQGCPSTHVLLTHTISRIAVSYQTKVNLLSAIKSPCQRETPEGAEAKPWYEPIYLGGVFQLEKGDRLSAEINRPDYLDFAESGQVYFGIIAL

Row | IC50 | Compound
1 | < 0.1 µM | [2H]C([2H])([2H])N1C(=O)c2cccc(OC(F)F)c2[C@H]2C[C@@H]1c1nc3ccc(C#CC4CCOCC4)cc3n12 [Example 48, (7R,14R)-1-(difluoromethoxy)-6-(methyl-d3)-11-((tetrahydro-2H-pyran-4-yl)ethynyl)-6,7-dihydro-7,14-methanobenzo[f]benzo[4,5]imidazo[1,2-a][1,4]diazocin-5(14H)-one]
2 | 0.1 to 1 µM | [2H]C([2H])([2H])N1C(=O)c2cccc(OC(F)F)c2[C@H]2C[C@@H]1c1nc3ccc(C#CCOC)cc3n12 [Example 42, (7R,14R)-1-(difluoromethoxy)-11-(3-methoxyprop-1-yn-1-yl)-6-(methyl-d3)-6,7-dihydro-7,14-methanobenzo[f]benzo[4,5]imidazo[1,2-a][1,4]diazocin-5(14H)-one]
3 | 0.1 to 1 µM | [2H]C([2H])([2H])N1C(=O)c2cccc(OC(F)F)c2[C@H]2C[C@@H]1c1nc3ccc(C#CCN4CC(F)C4)cc3n12 [Example 232, (7R,14R)-1-(difluoromethoxy)-11-(3-(3-fluoroazetidin-1-yl)prop-1-yn-1-yl)-6-(methyl-d3)-6,7-dihydro-7,14-methanobenzo[f]benzo[4,5]imidazo[1,2-a][1,4]diazocin-5(14H)-one]
4 | 10 to 30 µM | [2H]C([2H])([2H])N1C(=O)c2cccc(OC(F)F)c2[C@H]2C[C@@H]1c1nc3ccc(C#CC4CN(CC(C)(C)O)C4)cc3n12 [Example 197, (7R,14R)-1-(difluoromethoxy)-11-((1-(2-hydroxy-2-methylpropyl)azetidin-3-yl)ethynyl)-6-(methyl-d3)-6,7-dihydro-7,14-methanobenzo[f]benzo[4,5]imidazo[1,2-a][1,4]diazocin-5(14H)-one]
5 | < 0.1 µM | [2H]C([2H])([2H])N1C(=O)c2cccc(OC(F)F)c2[C@H]2C[C@@H]1c1nc3ccc(C#CC4CCN(C(=O)C5(O)CC5)CC4)cc3n12 [Example 187, (7R,14R)-1-(difluoromethoxy)-11-((1-(1-hydroxycyclopropane-1-carbonyl)piperidin-4-yl)ethynyl)-6-(methyl-d3)-6,7-dihydro-7,14-methanobenzo[f]benzo[4,5]imidazo[1,2-a][1,4]diazocin-5(14H)-one]
6 | 0.1 to 1 µM | [2H]C([2H])([2H])N1C(=O)c2cccc(OC(F)F)c2[C@H]2C[C@@H]1c1nc3ccc(C#CC4CCN(C)CC4)cc3n12 [Example 57, (7R,14R)-1-(difluoromethoxy)-6-(methyl-d3)-11-((1-methylpiperidin-4-yl)ethynyl)-6,7-dihydro-7,14-methanobenzo[f]benzo[4,5]imidazo[1,2-a][1,4]diazocin-5(14H)-one]

Same assay, conditions: IC50 value, HEK Blue TNFα reporter cells; TNF-α 100 μg/ml; 24 hrs at 37° C.; inhibition of secreted alkaline phosphatase

Row | IC50 | Compound
7 | 10 to 30 µM | [2H]C([2H])([2H])N1C(=O)c2cccc(OC(F)F)c2[C@H]2C[C@@H]1c1nc3ccc(C#CC4CN(CC(F)F)C4)cc3n12 [Example 198, (7R,14R)-11-((1-(2,2-difluoroethyl)azetidin-3-yl)ethynyl)-1-(difluoromethoxy)-6-(methyl-d3)-6,7-dihydro-7,14-methanobenzo[f]benzo[4,5]imidazo[1,2-a][1,4]diazocin-5(14H)-one]
